Test results: patent US20220160712A1, “METHODS OF TREATING RHEUMATOID ARTHRITIS AND FOR PREDICTING THE RESPONSE TO METHOTREXATE” (CHAN ZUCKERBERG BIOHUB, INC., priority 2020, published 2022)

System: human gut bacterial isolates
Assay: In vitro bacterial growth studies (MIC, growth curves) on a panel of 45 isolates
Format: cell-based
From the text: 42/45 of the tested isolates are commonly found in the human gut microbiota, with the exceptions of Bacteroides acidifaciens (found in mice), Delftia acidovorans (found in soil), and Bacillus subtilis 168 (found in soil). Each of these strains was obtained from the Deutsche Sammlung von Mikroorganismen and Zellkulturen (DSMZ) culture collection. A single colony of each isolate was subcultured in Bacto Brain Heart Infusion (BD Biosciences, 37 g/L) supplemented with L-cysteine-HCl (0.05%, w/v), menadione (1 μg/mL), and hemin (5 μg/mL) (referred to hereafter as BHI+) for 48 hours in an anaerobic chamber (Coy Laboratory Products) at 37° C. with an atmosphere composed of 2-3% H2, 20% CO2, and the balance N2. This subculture was diluted down to an OD600 of 0.08-0.1, which was then further diluted 100-fold, and then used to inoculate a microtiter plate with 2-fold serial dilutions of MTX concentrations ranging from 0-900 μg/ml. Plates were incubated at 37° C. with shaking in an Eon Microplate Spectrophotometer (BioTek Instruments, Inc) over a 48 to 72-hour period in the anaerobic chamber. Growth was monitored every 15 minutes at OD600 and corrected for background (no growth control). Data were exported using the Gen5 (v 2.0) software. […] As with any in vitro system, the growth of cells may be dependent on the growth medium used, and for these studies, a rich medium (BHI+) was used.
Growth parameters (carrying capacity, time to mid-exponential and growth rate) were calculated in R using GrowthCurveR (Sprouffske, K., and Wagner, A. (2016), BMC Bioinformatics 17, 1726) (v0.2.1). Curves that could not be fit by the software (i.e., generated a warning/error message) were excluded from further analysis. […] Determination of dose-dependency was done by fitting a linear regression with methotrexate concentration as the independent variable and the estimated growth parameter as the dependent variable using lm from the stats package (v3.5.1). For rescue studies, as above, growth parameters (carrying capacity, time to mid-exponential, growth rate, and area under the curve) were calculated in R using GrowthCurveR (Sprouffske and Wagner, 2016) (v0.2.1). Four isolates were evaluated with varying sensitivity to MTX (B. thetaiotaomicron, B. vulgatus, C. innocuum and C. symbiosum). C. asparagiforme was excluded because rescue of growth would be difficult to identify in this MTX resistant strain (FIG. 2D). Growth curves at 9 concentrations of MTX tested against 7 concentrations of folic acid were measured. Determination of dose-dependency at each tested concentration of MTX was done by fitting a linear regression with folic acid or leucovorin concentration as the independent variable and the estimated growth parameter as the dependent variable using lm from the stats package (v3.5.1). […] A p-value cutoff of p<0.05 was used to identify effects that were dose-dependent based on the linear regression.

CN(Cc1cnc2nc(N)nc(N)c2n1)c1ccc(C(=O)N[C@@H](CCC(=O)O)C(=O)O)cc1 [MTX, methotrexate]
percentage of tested isolates inhibited at the estimated concentration in the proximal GI tract (22-220 μM or 10-100 μg/ml MTX, 5-15 of 45 isolates): 11-33% | Minimal inhibitory concentration (MIC) (45 isolates, MTX 1.7-900 μg/ml, 2-2,000 μM, 48 hours, BHI+, anaerobic): ranged across the full gradient | number of isolates resistant to the maximum concentration tested (45 isolates, maximum 900 μg/ml, 48 hours): 11 | sensitivity of Bacteroidetes relative to the other phyla (MICs of isolates spanning 4 major phyla (FIG. 2B)): tended to be sensitive | isolates with full growth inhibition or alterations in growth curve parameters (MTX concentrations predicted to be found in the human gut, 36/45 isolates): 80% | percentage of tested isolates with at least one growth parameter affected in a dose-dependent manner (sub-MIC concentrations, subset of strains with growth curves): 78%
